Legend:
ERα = ERα (Homo sapiens (Human), UniProt P03372); experiment: Degradation of ERα in MCF-7 cells (ELISA); type: cell-based; conditions: for Dmax at 3 µM: MCF7, read-out: Emax degradation (%); for DC50: MCF-7 cells, 16 to 18 h, read-out: EC50 (nM), degradation of ERα
Protocol: ERα-positive breast cancer cell line MCF-7 cells were cultured in a DMEM/F12 medium (HyClone, SH30023.01) containing 10% fetal bovine serum (Corning, 35-010-CV). […] The following day the compounds were serially diluted with DMSO and further diluted with the phenol red-free DMEM/F12 medium containing 5% charcoal-stripped fetal bovine serum. 20 μL of a diluted compound was added to each well of the 48-well plate at final concentrations of 3000, 300, 30, 3, 0.3, 0.03 and 0.003 nM. The 48-well plate was placed in the incubator for 16 to 18 h. A 96-well plate was coated with the capture antibody from the human ERα/NR3A1 total protein assay kit (R&D, DYC5715-5). […] The plate was placed in an incubator at 26° C. overnight. On day 3, the antibody-coated 96-well plate was washed once with PBS, and 200 μL of PBS containing 1% BSA was added to each well. The plate was incubated in an incubator at 37° C. for 1.5 h to be blocked. The cell culture medium supernatant was discarded. The cells were washed once with PBS, and 60 μL of a cell lysis buffer was added to each well. […] The cells were lysed on ice for 15 min, and 300 μL of PBS containing 1 mM EDTA and 0.5% TritonX-100 was added to each well to dilute the urea to 1 M. The blocking buffer in the blocked 96-well plate was discarded, and 100 μL of diluted cell lysis buffer was added to each well. The plate was incubated in an incubator at 37° C. for 2 h and washed 5 times with PBS. A biotinylated assay antibody was diluted to 0.4 μg/mL with PBS containing 1% BSA, and then 100 μL of the assay antibody was added to each well. The plate was incubated in an incubator at 37° C. for 1 h. The plate was then washed five more times, and 100 μL of avidin-HRP diluted 200-fold with PBS containing 1% BSA was added to each well. The plate was incubated at 37° C. for 30 min. The plate was washed five more times, and 100 μL of TMB substrate was added to each well. The plate was incubated at room temperature until blue color appeared, and 100 μL of stop solution was added to each well. OD450 signal values were read using a PHERAstar multi-mode microplate reader. The IC50 values for the inhibitory activity of the compounds were calculated using Graphpad Prism software.

CYP3A4 = CYP3A4 (Homo sapiens (Human), UniProt P08684); experiment: Inhibition of site of metabolism of midazolam in human liver microsome CYP3A4; type: in vitro ADME; conditions: midazolam substrate
Sequence of CYP3A4 (P08684 whole entry): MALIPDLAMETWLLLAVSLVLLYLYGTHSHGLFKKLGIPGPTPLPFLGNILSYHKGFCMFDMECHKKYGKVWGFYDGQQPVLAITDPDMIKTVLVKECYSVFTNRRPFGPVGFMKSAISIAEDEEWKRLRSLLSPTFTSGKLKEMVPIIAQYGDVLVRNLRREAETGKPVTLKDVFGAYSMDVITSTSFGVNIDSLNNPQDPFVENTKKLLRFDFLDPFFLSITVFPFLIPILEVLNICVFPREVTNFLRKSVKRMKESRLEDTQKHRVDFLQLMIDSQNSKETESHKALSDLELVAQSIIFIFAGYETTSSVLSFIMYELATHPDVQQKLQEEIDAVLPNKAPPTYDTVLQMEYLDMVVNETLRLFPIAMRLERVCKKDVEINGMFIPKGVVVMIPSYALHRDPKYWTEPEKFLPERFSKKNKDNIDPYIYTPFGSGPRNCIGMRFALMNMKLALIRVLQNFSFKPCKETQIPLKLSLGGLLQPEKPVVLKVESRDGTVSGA
Protocol: • 1. Phosphate buffer (20×PBS, purchased from Sangon); • 2. NADPH (ACROS, A2646-71-1); • 3. Human liver microsome (Corning Gentest, Cat No, 452161, Lot No. 9050002, Donor, 36); • 4. ABI QTrap 4000 LC-MS System (AB Sciex); • 5. ZORBAX Extend-C18, 3×50 mm, 3.5 μm (Agilent, USA); • 6. CYP probe substrate (midazolam, TRC, M343000/3 μM) and positive control inhibitor (ketoconazole, SIGMA, Cat No. K1003-100MG).
A 100 mM PBS buffer was prepared. A 0.25 mg/mL microsome solution, a 7.5 mM MgCl2 and a 5 mM NADPH solution were prepared using the buffer. A 30 mM stock solution was diluted with DMSO to obtain 30 mM, 10 mM, 3 mM, 1 mM, 0.3 mM, 0.03 mM, 0.003 mM and 0 mM serial solutions I, which were further diluted 200-fold with phosphate buffer (PBS) to obtain serial test solutions II (150, 50, 15, 5, 1.5, 0.15, 0.015 and 0 μM). A midazolam working solution was diluted with PBS to 15 μM.
40 μL of a 0.25 mg/mL microsome solution prepared in 7.5 mM MgCl2 and 20 μL of each of the 15 μM midazolam working solution and the compound working solutions (150, 50, 15, 5, 1.5, 0.15, 0.015 and 0 μM) were measured out and well mixed. Ketoconazole at the same concentration was used in place of the compounds as a positive control group. The mixtures were pre-incubated with 5 mM NADPH solution at 37° C. for 5 min at the same time. After 5 minutes, 20 μL of NADPH was added to each well to start reactions. The mixtures were incubated for 30 min. Duplicate samples were set for all of the incubated samples. After 30 minutes, 250 μL of internal standard-containing acetonitrile was added to all the samples. The mixtures were well mixed, shaken at 800 rpm for 10 min, and then centrifuged at 3700 rpm for 10 min. 100 μL of the supernatant and 80 μL of ultrapure water were well mixed and subjected to LC-MS/MS analysis.
The IC50 values of the drugs for the site of metabolism of midazolam in CYP3A4 were calculated using Graphpad Prism and are shown in Table 5.

MCF-7 cells = experiment: Inhibition of proliferation of MCF-7 cells (ATP method, Cell Titer-Glo); type: cell-based; conditions: Homo sapiens, MCF7; MCF-7 cells, 72 h
Protocol: This experiment was intended to test the inhibitory effects of the compounds disclosed herein on the proliferation of MCF-7 Cells by using the ATP method, and to evaluate the in vitro activity of the compounds according to the IC50 values.
MCF-7 cells (TCHu74, National Collection of Authenticated Cell Cultures) were seeded into a 96-well plate with an MEM (hyclone, SH30024.01B) medium containing 10% FBS (Gibco, 10099-141), 1% sodium pyruvate (sigma, 58636) and 1% non-essential amino acid (sigma, M7145) at a density of 4,000 cells/well and cultured at 37° C. with 5% CO2. 20 mM stock solutions of the compounds are prepared, serially diluted with 100% DMSO to a final concentration of 1000×, and then diluted 20-fold with a medium containing 2% FBS. After the cells were cultured for 24 h, the medium was removed. 90 μL of the medium containing 2% FBS and 10 μL of a drug were added to each well, and 10 μL of DMSO was added to the control group. The mixtures were well mixed by gentle shaking. The blank group contained only 100 μL of the medium containing 2% FBS. The cells were cultured in an incubator at 37° C. with 5% CO2 for 72 h, and then 50 μL of mixed Cell Titer-Glo (Promega, G7571) was added to each well. The mixtures were well mixed by shaking and let stand at room temperature for 10 min, and the chemiluminescence signal values were determined.
The chemiluminescence signal value was plotted against the compound concentration (in log form) using Graphpad Prism, and the IC50 values of the compounds were obtained.

Sequence of ERα (P03372 whole entry): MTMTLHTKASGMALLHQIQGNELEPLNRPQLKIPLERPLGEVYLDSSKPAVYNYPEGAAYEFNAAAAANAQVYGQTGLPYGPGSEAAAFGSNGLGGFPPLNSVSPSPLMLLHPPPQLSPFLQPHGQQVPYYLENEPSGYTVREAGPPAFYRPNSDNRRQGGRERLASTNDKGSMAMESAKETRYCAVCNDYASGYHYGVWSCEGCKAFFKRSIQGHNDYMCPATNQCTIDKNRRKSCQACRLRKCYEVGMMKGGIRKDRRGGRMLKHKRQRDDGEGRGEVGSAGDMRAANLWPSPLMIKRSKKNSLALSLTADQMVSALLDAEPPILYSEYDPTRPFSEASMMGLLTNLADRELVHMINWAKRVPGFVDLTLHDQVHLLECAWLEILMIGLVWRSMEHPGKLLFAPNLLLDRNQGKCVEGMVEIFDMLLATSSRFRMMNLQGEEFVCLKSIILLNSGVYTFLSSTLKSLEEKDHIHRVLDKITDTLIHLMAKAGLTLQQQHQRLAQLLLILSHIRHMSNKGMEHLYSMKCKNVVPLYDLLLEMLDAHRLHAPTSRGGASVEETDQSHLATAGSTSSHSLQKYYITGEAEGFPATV

Row | Dmax at 3 µM (ERα) [%] | DC50 (ERα) [nM] | IC50 (CYP3A4) [µM] | IC50 (MCF-7 cells) [nM] | Structure (SMILES)
1 | 104 | 0.24 | > 30 | 0.17 | C[C@@H]1Cc2cc3c(cc2[C@@H](c2c(F)cc(N[C@H]4CCN(CCCF)C4)cc2F)N1CC(F)(F)F)OCO3 [Example 2, (S)—N-(3,5-difluoro-4-((5S,7R)-7-methyl-6-(2,2,2-trifluoroethyl)-5,6,7,8-tetrahydro-[1,3]dioxolo[4,5-g]isoquinolin-5-yl)phenyl)-1-(3-fluoropropyl)pyrrolidin-3-amine]
2 | 129 | 0.19 | 10 | 0.15 | C[C@@H]1Cc2cc3c(cc2[C@@H](c2ccc(N[C@H]4CCN(CCCF)C4)cc2)N1CC(F)(F)CO)OCO3 [Example 3, 2,2-Difluoro-3-((5R,7R)-5-(4-(((S)-1-(3-fluoropropyl)pyrrolidin-3-yl)amino)phenyl)-7-methyl-7,8-dihydro-[1,3]dioxolo[4,5-g]isoquinolin-6(5H)-yl)propan-1-ol]
3 | 101 | 0.15 | 8.18 | 1.12 | [2H]C1([2H])Oc2cc3c(cc2O1)[C@@H](c1ccc(N[C@H]2CCN(CCCF)C2)cn1)N(CC(F)(F)CO)[C@H](C)C3 [Example 12, 2,2-Difluoro-3-((5S,7R)-5-(5-(((S)-1-(3-fluoropropyl)pyrrolidin-3-yl)amino)pyridin-2-yl)-7-methyl-7,8-dihydro-[1,3]dioxolo[4,5-g]isoquinolin-6(5H)-yl-2,2-d2)propan-1-ol]
